Patent publication US20220411377A1, “SELECTIVE NEURONAL NITRIC OXIDE SYNTHASE INHIBITORS” (Northwestern University, priority 2019, published 2022)
Counter-ions that a name gives are not always drawn.

What was measured:
human eNOS (heNOS) = biological target: T1, human eNOS (heNOS) (Homo sapiens, UniProt P29474); assay: Hemoglobin capture assay, purified human eNOS; format: biochemical
T1 construct: made in house; host or cells: E. coli
Method: (§1) Purified NOS Enzyme Assays. Rat and human nNOS, rat nNOS mutants, murine macrophage iNOS, human iNOS, and human eNOS were recombinant enzymes (expressed in E. coli and purified as reported previously).^21,50-52 To test for NOS inhibition, the hemoglobin capture assay was used to measure nitric oxide production. […] Also included were 100 μM NADPH, 0.83 mM CaCl2), approximately 320 units/mL of calmodulin, 10 μM H4B, and human oxyhemoglobin (3 μM). For iNOS, the CaCl2) and calmodulin were omitted and replaced with HEPES buffer (as neither are required for activation of iNOS). The assay was performed in 96-well plates using a Synergy 4 BioTek hybrid reader. […] Kinetic readouts were performed for 5 min. Each compound was assayed at least in duplicate, and six to nine concentrations (500 μM-50 nM or 100 μM-10 nM for eNOS and iNOS; 50 μM to 5 nM for rat and human nNOS) were used to construct concentration-response curves.

H2 receptor = H2 receptor (Homo sapiens, UniProt P25021); assay: PDSP off-target profiling, H2 receptor; format: binding
Sequence of H2 receptor (P25021 whole entry): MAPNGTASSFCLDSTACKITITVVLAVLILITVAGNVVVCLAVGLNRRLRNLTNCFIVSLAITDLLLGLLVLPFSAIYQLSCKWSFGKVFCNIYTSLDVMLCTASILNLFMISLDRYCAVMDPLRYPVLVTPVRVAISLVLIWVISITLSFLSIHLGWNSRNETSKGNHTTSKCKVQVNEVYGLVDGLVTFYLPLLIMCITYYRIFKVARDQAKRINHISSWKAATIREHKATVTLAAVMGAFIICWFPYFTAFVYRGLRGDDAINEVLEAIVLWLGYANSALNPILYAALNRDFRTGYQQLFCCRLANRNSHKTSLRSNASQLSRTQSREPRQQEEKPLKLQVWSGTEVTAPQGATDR
From the text: (§2) Off-Target Profiling. […] In this assay,^28 compounds were screened against a panel of 45 pharmacologically relevant CNS targets and receptors using a radioligand displacement assay.

human iNOS (hiNOS) = human iNOS (hiNOS) (Homo sapiens, UniProt P35228); settings: read-out: Ki hiNOS; Ki calculated from IC50 (Cheng-Prusoff)
Method: Human iNOS Inhibition Study.
as §1

[1] = biological target: rat nNOS D597N single mutant (Rattus norvegicus, UniProt P29476, D597N)
Method: as §1

rat nNOS (rnNOS) = biological target: T2, rat nNOS (rnNOS) (Rattus norvegicus, UniProt P29476); assay: Hemoglobin capture assay, purified rat nNOS; format: biochemical
T2 construct: made in house; host or cells: E. coli
Method: as §1

H3 receptor = H3 receptor (Homo sapiens, UniProt Q9Y5N1); assay: PDSP off-target profiling, H3 receptor
Sequence of H3 receptor (Q9Y5N1 whole entry): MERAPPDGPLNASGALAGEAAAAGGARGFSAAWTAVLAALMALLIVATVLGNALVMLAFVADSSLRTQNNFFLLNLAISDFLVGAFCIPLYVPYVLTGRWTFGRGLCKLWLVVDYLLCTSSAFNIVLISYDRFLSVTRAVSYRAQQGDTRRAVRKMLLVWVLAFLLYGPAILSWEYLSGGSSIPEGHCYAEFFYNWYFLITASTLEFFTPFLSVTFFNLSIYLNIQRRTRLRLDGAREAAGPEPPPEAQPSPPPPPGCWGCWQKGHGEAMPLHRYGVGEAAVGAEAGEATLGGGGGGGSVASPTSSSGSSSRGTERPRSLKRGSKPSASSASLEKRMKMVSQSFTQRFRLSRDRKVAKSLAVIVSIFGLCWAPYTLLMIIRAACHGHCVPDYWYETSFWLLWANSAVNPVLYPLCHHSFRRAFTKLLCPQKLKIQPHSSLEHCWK
From the text: as §2

[2] = system: panel of 45 pharmacologically relevant CNS targets and receptors; settings: for PDSP binding summary: insignificant: 10 µM
From the text: as §2

[3] = biological target: rat nNOS M336V/D597N double mutant (Rattus norvegicus, UniProt P29476, D597N/M336V); settings: versus the single mutant
Method: as §1

[4] = PAMPA
Method: In this assay, an artificial membrane containing BBB phospholipids is used to assess permeability.
PAMPA-BBB Assay. The PAMPA-BBB assay was performed following a protocol described previously.^21 Briefly, the assay was performed in 10 mM phosphate-buffered saline (PBS) buffer (pH 7.5), and compounds were tested at a concentration of 200 μM. The donor plate was first coated with 4 μL of porcine brain lipid (20 mg/mL in dodecane), followed by addition of 250 μL of a test compound. The acceptor plate was filled with 250 μL of PBS, and the donor plate was carefully placed on top of the acceptor plate to make a “sandwich”. The plate was incubated at 25° C. for 17 h in a saturated humidity atmosphere with orbital agitation at 100 rpm. […] After incubation, 150 μL of the test solution was taken from each well from both sides (donor and acceptor) and transferred to the UV plate for measurement. The effective permeability (Pe) was calculated using the following equation^57
R is the retention membrane factor and was calculated using the following equation

7-(3-(2-Aminoethyl)phenyl)-4-methylquinolin-2-amine Dihydrochloride [Compound 12]
Ki (human eNOS (heNOS); Ki calculated from IC50): 52.6 µM
ΔGbind WT heNOS (human eNOS (heNOS); obtained from Ki values): -4.5 kcal/mol
off-target binding classification, H2 receptor (H2 receptor): concerning (concerning (Ki<100 nM, or <˜2× nNOS Ki value))
Ki (human iNOS (hiNOS)): 29.9 µM
ΔGbind hnNOS D597N mutant ([1]; obtained from Ki values): -7.3 kcal/mol
decrease in potency, D597N mutant ([1]; versus wild type): 8 fold
% remaining at 60 min (—NADPH) (HLM without NADPH, 60 min): 87%
% remaining at 60 min (buffer) (buffer control, 60 min): 67%
t1/2 (half-life in HLM, Dihydrochloride): >1 h
CLint (in vitro intrinsic clearance, HLM): 8 mL/min/kg

Cc1cc(N)nc2cc(-c3ccc4c(c3)C(N)CC4)ccc12.Cl.Cl (racemic) [Compound 18, 7-(3-Amino-2,3-dihydro-1H-inden-5-yl)-4-methylquinolin-2-amine Dihydrochloride]
loss in rnNOS potency relative to comparator (rat nNOS (rnNOS); 6 vs 5, 15 and 18 vs 12, 17 vs 7): approximately 3 fold
Ki (rat nNOS (rnNOS); wild-type rat nNOS, Ki calculated from IC50): 0.18 µM

Cc1cc(N)nc2cc(-c3ccc(CN)cc3)ccc12.Cl.Cl [Compound 7, 7-(4-(Aminomethyl)phenyl)-4-methylquinolin-2-amine Dihydrochloride]
increase in rnNOS activity (rat nNOS (rnNOS); relative to 5): 2.3 fold

Cc1cc(N)nc2cc(-c3ccc(OCC4CC4)c(CN)c3)ccc12.Cl.Cl [Compound 29, 7-(3-(Aminomethyl)-4-(cyclopropylmethoxy)phenyl)-4-methylquinolin-2-amine Dihydrochloride]
off-target binding classification, H3 receptor (H3 receptor): concerning (concerning (Ki<100 nM, or <˜2× nNOS Ki value))

Cc1cc(N)nc2cc(-c3ccc(OCc4ccccn4)c(CN)c3)ccc12.Cl.Cl.Cl [Compound 32, 7-(3-(Aminomethyl)-4-(pyridin-2-ylmethoxy)phenyl)-4-methylquinolin-2-amine Trihydrochloride]
fraction of concerning or moderate hits [2]: 11/45
PDSP binding summary: insignificant [2]: 12

Cc1cc(N)nc2cc(-c3ccc(OCc4cccnc4)c(CN)c3)ccc12.Cl.Cl.Cl [Compound 33, 7-(3-(Aminomethyl)-4-(pyridin-3-ylmethoxy)phenyl)-4-methylquinolin-2-amine Trihydrochloride]
improvement in binding affinity toward heNOS (human eNOS (heNOS); 33 versus 32): 3 fold
fraction of concerning or moderate hits [2]: 8/45
PDSP binding summary: insignificant [2]: 20

Cc1cc(N)nc2cc(-c3ccc(OCc4cocn4)c(CN)c3)ccc12 [Compound 36, 7-(3-(Aminomethy)-4-(oxazol-4-ylmethoxy)phenyl)-4-methylquinolin-2-amine Trihydrochloride]
increased potency against the double mutant [3]: 5 fold

NCCc1ccc(O)c(O)c1 [dopamine]
prediction (CNS) [4]: CNS (−)
